In US9873690B2, “3-indol substituted derivatives, pharmaceutical compositions and methods for use” (Pfizer Inc., priority 2015, dated 2018):

Biological target: T1, hTDO2 (Homo sapiens, UniProt P48775)
T1 construct: endogenous in cells; host or cells: A172 human brain glioblastoma cells (ATCC CRL-1620)
Test: Cellular assay for TDO2 activity determination in A172 cells
Type: cell-based
Conditions: human glioblastoma A172 cells naturally expressing hTDO2; overnight incubation; kynurenine by absorbance at 480 nm
Experimental: The compounds of formula I inhibit the activity of human TDO2 in cells that constitutively express TDO2, such as A172 cells. A172 is a cell line derived from human brain glioblastoma cells. The cells are available from the American Type Culture Collection (ATCC®) as CRL-1620™.
The assay (adapted from Pilotte L et al., Proc Natl Acad Sci USA, 2012, 109(7), 2497-502) was performed in 96-well flat bottom plates seeded with human glioblastoma A172 cells, naturally expressing hTDO2 (prepared as described in Tilman et al., Mol Cancer, 2007, 17(6), 80), at a concentration of 1.25×10^4 cells/well in a final volume of 200 μL. To determine TDO, the cells were incubated overnight at 37° C. at 5% CO2 in IMDM (Invitrogen) supplemented with 2% FBS and 2% penicillin/streptomycin in the presence of the compounds of the present invention, at different concentrations.
The plates were then centrifuged 5 min at 1000 rpm, and 100 μL of the supernatant were collected in a conical plate, 30 μL of TCA 30% were added and a further centrifuged at 3000×g for 10 minutes. 100 μL of the supernatant were collected in a flat bottomed plate and 100 μL of 2% (w/v) 4-(dimethylamino)-benzaldehyde in acetic acid and incubated for 5 min at room temperature. Kynurenine concentrations were determined by measuring the absorbance at 480 nm. A standard curve was made with pure kynurenine. The TDO activity was measured as described above using ten serial concentrations of the compounds of the present invention. Data were fitted using the Prism™ software (GraphPad Software, Inc.) using standard parameters.
The biological activity of representative compounds in human brain glioblastoma cells as determined in the above-referenced assay is summarized in the following table: […]

T1 sequence (P48775 whole entry): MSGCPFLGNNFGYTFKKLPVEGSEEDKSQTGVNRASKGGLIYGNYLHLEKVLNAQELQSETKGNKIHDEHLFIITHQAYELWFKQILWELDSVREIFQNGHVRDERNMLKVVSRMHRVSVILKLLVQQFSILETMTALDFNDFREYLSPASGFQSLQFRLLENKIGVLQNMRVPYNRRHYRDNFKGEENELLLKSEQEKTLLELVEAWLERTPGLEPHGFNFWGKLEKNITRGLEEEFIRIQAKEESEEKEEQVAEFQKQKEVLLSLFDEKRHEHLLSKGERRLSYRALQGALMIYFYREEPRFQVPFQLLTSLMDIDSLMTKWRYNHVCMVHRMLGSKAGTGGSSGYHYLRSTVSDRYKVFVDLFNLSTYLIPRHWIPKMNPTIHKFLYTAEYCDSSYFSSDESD

Row | SMILES | IC50
1 | O=S1(=O)NC(CO)c2cc(-c3c[nH]c4cc(F)ccc34)ccc21 (single isomer, unassigned; (-)) [Example 12, (−)-5-(6-fluoro-1H-indol-3-yl)-3-(hydroxymethyl)-2,3-dihydrobenzo[d]isothiazole 1,1-dioxide] | 74 nM
2 | COC(=O)C1NS(=O)(=O)c2ccc(-c3c[nH]c4cc(F)ccc34)cc21 (racemic) [Example 14, methyl 5-(6-fluoro-1H-indol-3-yl)-2,3-dihydrobenzo-[d]isothiazole-3-carboxylate 1,1-dioxide] | 8090 nM
3 | CNC(=O)C1NS(=O)(=O)c2ccc(-c3c[nH]c4cc(F)ccc34)cc21 (single isomer, unassigned; (+)) [Example 18, (+)-5-(6-fluoro-1H-indol-3-yl)-N-methyl-2,3-dihydrobenzo[d]isothiazole-3-carboxamide 1,1-dioxide] | 5000 nM
4 | CC1c2cc(-c3c[nH]c4cc(F)ccc34)ccc2S(=O)(=O)N1CCN1CCNCC1=O (single isomer, unassigned; (+)) [Example 66, (+)1-(2-(5-(6-fluoro-1H-indol-3-yl)-3-methyl-1,1-dioxidobenzo[d]isothiazol-2(3H)-yl)ethyl)piperazin-2-one] | 244 nM
5 | CC1=NS(=O)(=O)c2ccc(-c3c[nH]c4cc(F)ccc34)cc21 [Example 135, 5-(6-fluoro-1H-indol-3-yl)-3-methylbenzo[d]isothiazole 1,1-dioxide] | 183 nM
6 | C[C@@H]1NS(=O)(=O)c2ccc(-c3c[nH]c4cc(F)ccc34)cc21 (single isomer, unassigned) [Example 2, (−)-5-(6-fluoro-1H-indol-3-yl)-3-methyl-2,3-dihydro-1,2-benzothiazole 1,1-dioxide] | 110 nM
7 | CC1c2cc(-c3c[nH]c4cc(F)ccc34)ccc2S(=O)(=O)N1CC1(C)COC(=O)N1 (single isomer, unassigned) [Example 87] | 313 nM
8 | CN1CC(N2Cc3cc(-c4c[nH]c5cc(F)ccc45)ccc3S2(=O)=O)C1 [Example 41, 5-(6-fluoro-1H-indol-3-yl)-2-(1-methylazetidin-3-yl)-2,3-dihydrobenzo[d]isothiazole 1,1-dioxide] | 433 nM
9 | CCC1NS(=O)(=O)c2ccc(-c3c[nH]c4cc(F)ccc34)cc21 (single isomer, unassigned; (-)) [Example 4, (−)-3-ethyl-5-(6-fluoro-1H-indol-3-yl)-2,3-dihydrobenzo[d]isothiazole 1,1-dioxide] | 272 nM
10 | Cc1cc(O)n(CCN2C(C)c3cc(-c4c[nH]c5cc(F)ccc45)ccc3S2(=O)=O)n1 (single isomer, unassigned; (-)) [Example 68, (−)-5-(6-fluoro-1H-indol-3-yl)-2-(2-(5-hydroxy-3-methyl-1H-pyrazol-1-yl)ethyl)-3-methyl-2,3-dihydrobenzo[d]isothiazole 1,1-dioxide] | 3460 nM
11 | CN(C)CC1NS(=O)(=O)c2ccc(-c3c[nH]c4cc(F)ccc34)cc21 (single isomer, unassigned; (-)) [Example 25, (−)-3-((dimethylamino)methyl)-5-(6-fluoro-1H-indol-3-yl)-2,3-dihydrobenzo[d]isothiazole 1,1-dioxide] | 4980 nM
12 | CC(=O)NCC1NS(=O)(=O)c2ccc(-c3c[nH]c4cc(F)ccc34)cc21 (single isomer, unassigned; (-)) [Example 23, (−)-N-((5-(6-fluoro-1H-indol-3-yl)-1,1-dioxido-2,3-dihydrobenzo[d]isothiazol-3-yl)methyl)acetamide] | 1020 nM
13 | CS(=O)(=O)NCC1NS(=O)(=O)c2ccc(-c3c[nH]c4cc(F)ccc34)cc21 (single isomer, unassigned; (+)) [Example 140, (+)-N-((5-(6-fluoro-1H-indol-3-yl)-1,1-dioxido-2,3-dihydrobenzo[d]isothiazol-3-yl)methyl)methanesulfonamide] | 285 nM
14 | O=S1(=O)c2ccc(-c3c[nH]c4cc(F)ccc34)cc2CN1C[C@@H](O)CO [Example 35, (R)-2-(2,3-dihydroxypropyl)-5-(6-fluoro-1H-indol-3-yl)-2,3-dihydrobenzo[d]isothiazole 1,1-dioxide] | 119 nM
15 | CN(C)CC1NS(=O)(=O)c2ccc(-c3c[nH]c4cc(F)ccc34)cc21 (single isomer, unassigned; (+)) [Example 26, (+)-3-((dimethylamino)methyl)-5-(6-fluoro-1H-indol-3-yl)-2,3-dihydrobenzo[d]isothiazole 1,1-dioxide] | 437 nM
16 | CNC(=O)CN1C(CO)c2cc(-c3c[nH]c4cc(F)ccc34)ccc2S1(=O)=O (single isomer, unassigned; (+)) [Example 128, (+)-2-(5-(6-fluoro-1H-indol-3-yl)-3-(hydroxymethyl)-1,1-dioxidobenzo[d]isothiazol-2(3H)-yl)-N-methylacetamide] | 79 nM
17 | NCCN1Cc2cc(-c3c[nH]c4cc(F)ccc34)ccc2S1(=O)=O [Example 31, 2-(2-aminoethyl)-5-(6-fluoro-1H-indol-3-yl)-2,3-dihydrobenzo[d]isothiazole 1,1-dioxide] | 221 nM

More lines, now with the values ahead:

Row | IC50 | SMILES
18 | 71 nM | CNC(=O)CCN1C(C)c2cc(-c3c[nH]c4cc(F)ccc34)ccc2S1(=O)=O (single isomer, unassigned; (+)) [Example 45, (+)-3-(5-(6-fluoro-1H-indol-3-yl)-3-methyl-1,1-dioxidobenzo[d]-isothiazol-2(3H)-yl)-N-methylpropanamide]
19 | 142 nM | CNC(=O)CN1C(C)c2cc(-c3c[nH]c4cc(F)ccc34)ccc2S1(=O)=O (single isomer, unassigned; (+)) [Example 112, (+)-2-(5-(6-fluoro-1H-indol-3-yl)-3-methyl-1,1-dioxidobenzo[d]isothiazol-2(3H)-yl)-Nmethylacetamide]
20 | 59 nM | CC1c2cc(-c3c[nH]c4cc(F)ccc34)ccc2S(=O)(=O)N1CC(=O)N(C)C (single isomer, unassigned; (-)) [Example 113, (−)-2-(5-(6-fluoro-1H-indol-3-yl)-3-methyl-1,1-dioxidobenzo[d]isothiazol-2(3H)-yl)-N,N-dimethylacetamide]
21 | 188 nM | CNC(=O)C(CN1C(C)c2cc(-c3c[nH]c4cc(F)ccc34)ccc2S1(=O)=O)OC (single isomer, unassigned; (+)) [Example 105, (+)-3-(5-(6-fluoro-1H-indol-3-yl)-3-methyl-1,1-dioxidobenzo[d]isothiazol-2(3H)-yl)-2-methoxy-N-methylpropanamide]
22 | 306 nM | CC1c2cc(-c3c[nH]c4cc(F)ccc34)ccc2S(=O)(=O)N1CC[S+](C)[O-] (single isomer, unassigned; (-)) [Example 56, (−)-5-(6-fluoro-1H-indol-3-yl)-3-methyl-2-(2-(methylsulfinyl)ethyl)-2,3-dihydrobenzo[d]isothiazole 1,1-dioxide]
23 | 27 nM | CC1c2cc(-c3c[nH]c4cc(F)ccc34)ccc2S(=O)(=O)N1C1CNC1 (single isomer, unassigned; (+)) [Example 92, (+)-2-(azetidin-3-yl)-5-(6-fluoro-1H-indol-3-yl)-3-methyl-2,3-dihydrobenzo[d]isothiazole 1,1-dioxide]
24 | 64 nM | CC(=O)N1CCC(N2C(C)c3cc(-c4c[nH]c5cc(F)ccc45)ccc3S2(=O)=O)CC1 (single isomer, unassigned; (-)) [Example 72, (−)-1-(4-(5-(6-fluoro-1H-indol-3-yl)-3-methyl-1,1-dioxidobenzo[d]isothiazol-2(3H)-yl)piperidin-1-yl)ethanone]
25 | 61 nM | CC(=O)N1CCC(N2C(C)c3cc(-c4c[nH]c5cc(F)ccc45)ccc3S2(=O)=O)C1 (single isomer, unassigned; (-)) [Example 76, (−)-1-(3-(5-(6-fluoro-1H-indol-3-yl)-3-methyl-1,1-dioxidobenzo[d]isothiazol-2(3H)-yl)pyrrolidin-1-yl)ethanone]
26 | 258 nM | CC1c2cc(-c3c[nH]c4cc(F)ccc34)ccc2S(=O)(=O)N1CC1CCN(C)CC1 (single isomer, unassigned; (-)) [Example 79, (−)-5-(6-fluoro-1H-indol-3-yl)-3-methyl-2-((1-methylpiperidin-4-yl)methyl)-2,3-dihydrobenzo[d]isothiazole 1,1-dioxide]
27 | 115 nM | CNC(=O)C(O)CN1C(C)c2cc(-c3c[nH]c4cc(F)ccc34)ccc2S1(=O)=O (single isomer, unassigned; (-)) [Example 98, (−)-3-(5-(6-fluoro-1H-indol-3-yl)-3-methyl-1,1-dioxidobenzo[d]isothiazol-2(3H)-yl)-2-hydroxy-N-methylpropanamide]
28 | 413 nM | CNC(=O)C(N)CN1C(C)c2cc(-c3c[nH]c4cc(F)ccc34)ccc2S1(=O)=O (single isomer, unassigned; (-)) [Example 103, (−)-2-amino-3-(5-(6-fluoro-1H-indol-3-yl)-3-methyl-1,1-dioxidobenzo[d]isothiazol-2(3H)-yl)-N-methylpropanamide]
